Results reported in ChEMBL document CHEMBL3217754, “Nitro-based inhibitors against thermolysin” (Medchemcomm, 2011).

target: T1, Thermolysin (Bacillus thermoproteolyticus, UniProt P00800); test: Competitive inhibition of Bacillus thermoproteolyticus thermolysin using N-[3-(2-furyl)acryloyl]Gly-L-Leu-NH2 as substrate by Dixon plot analysis
T1 sequence (P00800 whole entry): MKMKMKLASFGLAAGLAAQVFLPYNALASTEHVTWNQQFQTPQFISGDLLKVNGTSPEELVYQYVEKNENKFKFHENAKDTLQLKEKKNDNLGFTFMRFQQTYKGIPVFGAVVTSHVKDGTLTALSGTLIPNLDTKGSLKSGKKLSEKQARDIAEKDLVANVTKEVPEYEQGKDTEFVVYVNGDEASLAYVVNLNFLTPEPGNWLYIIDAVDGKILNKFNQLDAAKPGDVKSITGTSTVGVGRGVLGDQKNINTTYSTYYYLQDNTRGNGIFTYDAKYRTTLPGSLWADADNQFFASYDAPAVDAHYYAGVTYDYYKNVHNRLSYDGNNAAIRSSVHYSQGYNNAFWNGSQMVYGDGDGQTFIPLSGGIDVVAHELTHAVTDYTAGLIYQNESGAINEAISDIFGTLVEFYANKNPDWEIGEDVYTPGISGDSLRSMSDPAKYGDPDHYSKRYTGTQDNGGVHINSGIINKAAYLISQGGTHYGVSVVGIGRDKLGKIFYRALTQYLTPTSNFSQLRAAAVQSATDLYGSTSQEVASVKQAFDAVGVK

SMILES	Ki [nM]
NC(=O)[C@H](Cc1ccccc1)C[N+](=O)[O-]	7600
NC(=O)[C@@H](Cc1ccccc1)C[N+](=O)[O-]	663000
COC(=O)[C@H](Cc1ccccc1)NC(=O)[C@H](CC(C)C)C[N+](=O)[O-]	840
COC(=O)[C@H](Cc1ccccc1)NC(=O)[C@@H](CC(C)C)C[N+](=O)[O-]	7200
COC(=O)[C@H](CC(C)C)NC(=O)[C@H](Cc1ccccc1)C[N+](=O)[O-]	370
COC(=O)[C@H](CC(C)C)NC(=O)[C@H](CC(C)C)C[N+](=O)[O-]	83
COC(=O)[C@H](CC(C)C)NC(=O)[C@@H](CC(C)C)C[N+](=O)[O-]	770
NC(=O)C(Cc1ccccc1)C[N+](=O)[O-] (racemic)	36000

More lines, now with the values ahead:

Ki [nM]	SMILES
950	COC(=O)[C@H](Cc1ccccc1)NC(=O)[C@H](Cc1ccccc1)C[N+](=O)[O-]
79000	COC(=O)[C@H](Cc1ccccc1)NC(=O)[C@@H](Cc1ccccc1)C[N+](=O)[O-]
1400	COC(=O)[C@@H](Cc1ccccc1)NC(=O)[C@H](Cc1ccccc1)C[N+](=O)[O-]
86000	COC(=O)[C@@H](Cc1ccccc1)NC(=O)[C@@H](Cc1ccccc1)C[N+](=O)[O-]
2400	COC(=O)[C@H](CC(C)C)NC(=O)[C@@H](Cc1ccccc1)C[N+](=O)[O-]
